Laboratory results from patent publication US9777037B2, “Neurosteroid compounds” (BIONATURE E. A. LTD., priority 2007, dated 2017).

System: Neural-crest derived PC12 cells
Assay: APOPercentage apoptosis assay, serum-deprivation induced apoptosis of PC12 cells
Type: cell-based, rat
Conditions: Rattus norvegicus, PC-12, absence of serum 12 hours, ApoPercentage assay (FIG. 2), read-out: IC50 of anti-apoptotic, cytoprotective effect
Description: Neural-crest derived PC12 cells were maintained in culture at 5% CO2, at 37° C., in RPMI 1640 medium containing 2 mM L-glutamine, 15 mM HEPES, 100 units/ml penicillin, 0.1 mg/ml streptomycin, 10% horse serum, and 5% foetal calf serum. Serum free medium was supplemented with 1% bovine serum albumin (BSA). Different steroids, used at various concentrations, were initially diluted in ethanol. The final concentration of ethanol in each well, including controls was 0.01%. Conjugate DHEA-BSA was initially diluted in Phosphate Buffer Saline (PBS).
Cells were cultured in the absence of serum for 12 hours, supplemented with DHEA and various synthetic spiro neurosteroids at 10 nM. Cell apoptosis was quantitated with two different methods: The APOPercentage Apoptosis Assay (Biocolor Ltd., Belfast, N. Ireland) was used to quantify apoptosis, according to the manufacturer's instructions. Apoptosis was quantified following cell lysis by measuring the dye incorporated in apoptotic cells at 550 nm (reference filter 620 nm) using a colour filter microplate colorimeter (Dynatech MicroElisa reader, Chantilly, Va.) (see FIGS. 1 and 2). FACS Analysis: FACS analysis of apoptotic cells was performed according to our protocol (Proc Natl Acad Sci USA 101,8209 (2004)). Flow cytometry was performed with FACScan (Becton Dickinson, Heidelberg, Germany) and the results were analysed with the FACScan and Cell Quest softwares (see FIG. 3).

Compound: C[C@]12CC[C@H](O)CC1=CCC1C2CC[C@@]2(C)C1CC[C@@]21CO1 (stereo partly drawn) [BNN-50, 17β-spiro-[5-androsten-17,2′-oxiran]-3β-ol]
- IC50: 0.088 nM
